Test results from PubChem BioAssay (NCI).
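At the GI50, growth is halved. TGI: concentration producing complete growth inhibition.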

What was measured:
Test in all cases: inhibition of tumour cell growth, NCI panel, 384-well format
[1] = tested on: 786-0 renal
[2] = tested on: A498 renal
[3] = tested on: A549 NSCLC
[4] = tested on: BT-549 breast
[5] = tested on: CCRF-CEM leukemia
[6] = tested on: COLO 205 colon
[7] = tested on: DU-145 prostate
[8] = tested on: EKVX NSCLC
[9] = tested on: HCC-2998 colon
[10] = tested on: HCT-15 colon
[11] = tested on: HL-60(TB) leukemia
[12] = tested on: HOP-62 NSCLC
[13] = tested on: HS 578T breast
[14] = tested on: IGROV1 ovarian
[15] = tested on: K-562 leukemia
[16] = tested on: KM12 colon
[17] = tested on: LOX IMVI melanoma
[18] = tested on: M14 melanoma
[19] = tested on: MALME-3M melanoma
[20] = tested on: MCF7 breast
[21] = tested on: MDA-MB-231 breast
[22] = tested on: MDA-MB-435 melanoma
[23] = tested on: MDA-MB-468 breast
[24] = tested on: MOLT-4 leukemia
[25] = tested on: NCI-H23 lung
[26] = tested on: NCI-H322M lung
[27] = tested on: NCI-H460 NSCLC
[28] = tested on: NCI-H522 lung
[29] = tested on: NCI/ADR-RES ovarian
[30] = tested on: OVCAR-3 ovarian
[31] = tested on: OVCAR-4 ovarian
[32] = tested on: OVCAR-5 ovarian
[33] = tested on: OVCAR-8 ovarian
[34] = tested on: RPMI-8226 leukemia
[35] = tested on: RXF 393 renal
[36] = tested on: SF-268 CNS
[37] = tested on: SF-539 CNS
[38] = tested on: SK-MEL-28 melanoma
[39] = tested on: SK-MEL-5 melanoma
[40] = tested on: SK-OV-3 ovarian
[41] = tested on: SN12C renal
[42] = tested on: SNB-19 CNS
[43] = tested on: SNB-75 CNS
[44] = tested on: SW-620 colon
[45] = tested on: TK-10 renal
[46] = tested on: U251 glioblastoma
[47] = tested on: UACC-257 melanoma
[48] = tested on: UACC-62 melanoma
[49] = tested on: UO-31 renal

## CN1CCN(Cc2ccc(Nc3ncc(Cl)c(Nc4ccccc4S(=O)(=O)N(C)C)n3)cc2)CC1
[1]
  GI50: 109 nM
  TGI: 1140 nM
[2]
  GI50: 136 nM
  TGI: 671 nM
[3]
  GI50: < 10 nM
  TGI: 750 nM
[4]
  GI50: 117 nM
  TGI: 257 nM
[5]
  GI50: < 10 nM
  TGI: 15.3 nM
[6]
  GI50: 16.9 nM
  TGI: 128 nM
[7]
  GI50: 45.2 nM
  TGI: 15500 nM
[8]
  GI50: 192 nM
  TGI: 478 nM
[9]
  GI50: 32 nM
  TGI: 251 nM
[10]
  GI50: 72.5 nM
  TGI: 371 nM
[11]
  GI50: < 10 nM
  TGI: 17.3 nM
[12]
  GI50: 20.8 nM
  TGI: 73.6 nM
[13]
  GI50: 181 nM
  TGI: 356 nM
[14]
  GI50: 62.6 nM
  TGI: 21200 nM
[15]
  GI50: 16.5 nM
  TGI: 233 nM
[16]
  GI50: 16.5 nM
  TGI: 298 nM
[17]
  GI50: 20.5 nM
  TGI: 201 nM
[18]
  GI50: 98 nM
  TGI: 235 nM
[19]
  GI50: 116 nM
  TGI: 252 nM
[20]
  GI50: < 10 nM
  TGI: 1310 nM
[21]
  GI50: 167 nM
  TGI: 1130 nM
[22]
  GI50: 149 nM
  TGI: 441 nM
[23]
  GI50: 41.9 nM
  TGI: 151 nM
[24]
  GI50: < 10 nM
[25]
  GI50: 98.2 nM
  TGI: 234 nM
[26]
  GI50: 129 nM
  TGI: 351 nM
[27]
  GI50: < 10 nM
  TGI: 10.9 nM
[28]
  GI50: < 10 nM
  TGI: 170 nM
[29]
  GI50: 191 nM
  TGI: 481 nM
[30]
  GI50: 52.7 nM
  TGI: 243 nM
[31]
  GI50: 299 nM
  TGI: 888 nM
[32]
  GI50: 128 nM
  TGI: 605 nM
[33]
  GI50: 134 nM
  TGI: 420 nM
[34]
  GI50: < 10 nM
  TGI: 32.6 nM
[35]
  GI50: 162 nM
  TGI: 307 nM
[36]
  GI50: 18.3 nM
  TGI: 78.8 nM
[37]
  GI50: 18.1 nM
  TGI: 139 nM
[38]
  GI50: 133 nM
  TGI: 274 nM
[39]
  GI50: 29.2 nM
  TGI: 186 nM
[40]
  GI50: 280 nM
  TGI: > 100000 nM
[41]
  GI50: 140 nM
  TGI: 358 nM
[42]
  GI50: 224 nM
  TGI: > 100000 nM
[43]
  GI50: 200 nM
  TGI: 363 nM
[44]
  GI50: 44.8 nM
  TGI: 306 nM
[45]
  GI50: 393 nM
  TGI: 2880 nM
[46]
  GI50: 146 nM
  TGI: 920 nM
[47]
  GI50: 111 nM
  TGI: 253 nM
[48]
  GI50: < 10 nM
  TGI: 123 nM
[49]
  GI50: 144 nM
  TGI: 448 nM
